Assay [1] has as its system SK-BR-3. The following applies: 72 h. The essentials:
(§1)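 A 20 µl suspension of breast cancer cells was placed in 384-well plates that already contained compound at 5 concentrations in 10-fold steps across a compound-specific 10,000-fold range, and the plates were left for 72 h. CellTox Green fluorescence at 485/520 nm gave cell death, and CellTiter-Glo luminescence, read after 10 min at room temperature, gave viability. Each plate was normalised to 0.1 % DMSO and a positive kill control. EC50 was fitted from the curves and censored at the top concentration.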

Assay [2] relates to Hs578T. The following applies: 72 h. The essentials: as §1
For a further assay, the system named is HCC1143. Kind of assay: normalised response (% of control), CellTiter-Glo; higher = more viable cells (100 = DMSO, 0 = benzethonium chloride kill control). The following applies: incubation time: 72 h. An outline of the steps:
(§2)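 Plates were normalised with 0.1 % DMSO as 100 and a positive kill control as 0. Breast cancer cell lines in 20 µl suspension had been seeded into 384-well plates with compound at 5 concentrations in 10-fold steps over a compound-specific 10,000-fold range, incubated 72 h, and read for CellTox Green fluorescence (485/520 nm) followed by CellTiter-Glo luminescence. Each value is the normalised signal at a single concentration.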
(ATP-based viability assays read luminescence as a measure of living cells.)

Assay [3] has as its system CAL-148. Described as above. The following applies: incubation time: 72 h. An outline of the steps:
as §2

The subject of a further assay is MDA-MB-436. The description is as above. The following applies: incubation time: 72 h. An outline of the steps: as §2
For the next assay, the system named is BT-549. The following applies: 72 h. The essentials: (§3)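 Rows with a drug sensitivity score of zero were dropped, and EC50 was taken from the fitted percent-inhibition dose-response curve, censored at the highest concentration. Data were normalised on each plate to vehicle and a positive kill control and checked by Z'-factor. The assay seeded breast cancer cell lines in 20 µl onto 384-well plates pre-loaded with compound in 5 µl medium for 72 h, then added 2.5 µl CellTiter-Blue for 2 h at 37 °C and read fluorescence at 560/590 nm.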

A further assay concerns MDA-MB-468. The following applies: 72 h. The essentials: as §3
Assay [4] deals with Hs578T. The following applies: 72 h. The essentials:
as §3
The source holds these as a separate data set.

Another assay relates to MDA-MB-453. The following applies: 72 h. An outline of the steps:
as §3

A further assay has as its system CAL-51. The following applies: 72 h. The essentials: as §3
The next assay deals with DU-4475. The following applies: 72 h. The essentials:
as §3

Another assay relates to CAL-85-1. The following applies: 72 h. An outline of the steps: as §3
Assay [5] concerns CAL-148. The following applies: 72 h. The essentials:
as §3

The subject of assay [6] is SK-BR-3. The following applies: 72 h. An outline of the steps:
as §3
This is another data set of the same source.

The next assay has as its system HCC1599. The following applies: 72 h. The essentials:
as §1

A further assay relates to CAL-120. The following applies: 72 h. The essentials:
as §1

Assay [7] relates to MFM-223. The following applies: 72 h. The essentials: as §1
Assay [8] concerns MFM-223. The following applies: 72 h. An outline of the steps: as §3
This is another data set of the same source.

For `O=C(O)c1ccc(-c2c[nH]c3ncc(-c4ccccc4)cc23)cc1C1CCCC1`, the “EC50, CellTiter-Glo” value in the assay on SK-BR-3 [1] and in the assay with Hs578T [2] was over 10000 nM each time.

Consider `Cc1ccc(C(=O)N(CCCN)[C@@H](c2oc3cc(Cl)ccc3c(=O)c2Cc2ccccc2)C(C)C)cc1` (100 nM), for which the normalised response amounted to 96% in the assay on HCC1143, 88.9% in the assay with CAL-148 [3] and 88.3% in the assay with MDA-MB-436.

Consider `CO[C@H]1/C=C\C=C(/C)C(=O)NC2=CC(=O)C(NCCN(C)C)=C(C[C@@H](C)C[C@H](OC)[C@H](O)[C@@H](C)/C=C(\C)[C@@H]1OC(N)=O)C2=O` [Alvespimycin] (1000 nM), for which the normalised response with HCC1143 was 33.1%; in the assay with CAL-148 [3] it was 26.3%; with MDA-MB-436 it was 44.9%.

`CCC1(c2ccc(N)cc2)CCC(=O)NC1=O` (stereo not drawn) [Aminoglutethimide] (10000 nM): the normalised response was 97.4% in the assay with HCC1143, 108% in the assay on CAL-148 [3] and 102% with MDA-MB-436.

`CCN(CCCOc1ccc2c(Nc3cc(CC(=O)Nc4cccc(F)c4)[nH]n3)ncnc2c1)CCOP(=O)(O)O` [Barasertib]: the “EC50, CellTiter-Blue viability” value with BT-549 came to 23.1 nM; in the assay with MDA-MB-468 it was 44.5 nM; in the assay on Hs578T [4], 12.5 nM; with MDA-MB-453 it was 6.32 nM; with CAL-51, 37.9 nM; in the assay with DU-4475, 375 nM. Besides, the results for the “EC50, CellTiter-Blue viability” value in the assay on CAL-85-1 and with CAL-148 [5] were 9.39 nM and 7.07 nM, respectively.

Consider `Cn1c(CCCC(=O)O)nc2cc(N(CCCl)CCCl)ccc21` [Bendamustine], for which the “EC50, CellTiter-Blue viability” value with SK-BR-3 [6] was over 10000 nM.

For `Cn1c(CCCC(=O)O)nc2cc(N(CCCl)CCCl)ccc21` [Bendamustine] (10000 nM), the normalised response in the assay on HCC1143 is 111%; in the assay on CAL-148 [3] it was 110%; with MDA-MB-436, 105%.

Regarding `C=C(c1ccc(C(=O)O)cc1)c1cc2c(cc1C)C(C)(C)CCC2(C)C` [Bexarotene], the “EC50, CellTiter-Glo” value turned out to be 254 nM in the assay on SK-BR-3 [1] and 165 nM in the assay on HCC1599. Besides, the “EC50, CellTiter-Blue viability” value with CAL-148 [5] came to 1730 nM.

In the case of `C=C(c1ccc(C(=O)O)cc1)c1cc2c(cc1C)C(C)(C)CCC2(C)C` [Bexarotene] (10000 nM), the normalised response in the assay with HCC1143 was 101%; with CAL-148 [3], 79.9%; in the assay with MDA-MB-436, 95.9%.

Regarding `COc1cc2nccc(Oc3ccc(NC(=O)C4(C(=O)Nc5ccc(F)cc5)CC4)cc3)c2cc1OC` [Cabozantinib], the results for the “EC50, CellTiter-Blue viability” value with MDA-MB-453 and in the assay on CAL-148 [5] were 874 nM and 558 nM, respectively.

Regarding `COc1cc2nccc(Oc3ccc(NC(=O)C4(C(=O)Nc5ccc(F)cc5)CC4)cc3)c2cc1OC` [Cabozantinib] (1000 nM), the normalised response with HCC1143 came out at 95.3%; with CAL-148 [3], 104%; in the assay on MDA-MB-436 it was 101%.

On to `N.N.[Cl][Pt][Cl]` [Cisplatin] (1000 nM), for which the normalised response amounted to 103% in the assay on HCC1143, 96.9% in the assay on CAL-148 [3] and 100% with MDA-MB-436.

In the case of `C[C@@H](Oc1cc(-c2cnn(C3CCNCC3)c2)cnc1N)c1c(Cl)ccc(F)c1Cl` [Crizotinib] (1000 nM), the normalised response was determined as 102% with HCC1143, 99.3% in the assay with CAL-148 [3] and 102% in the assay with MDA-MB-436.

Turning to `CN(C)/N=N/c1[nH]cnc1C(N)=O` [Dacarbazine], in the assay on CAL-120, the “EC50, CellTiter-Glo” value was over 10000 nM.

In the case of `CN(C)/N=N/c1[nH]cnc1C(N)=O` [Dacarbazine] (10000 nM), the normalised response was 109% with HCC1143, 103% with CAL-148 [3] and 108% in the assay on MDA-MB-436.

As to `Cc1ccc(-n2nc(C(C)(C)C)cc2NC(=O)Nc2ccc(OCCN3CCOCC3)c3ccccc23)cc1` [Doramapimod], the “EC50, CellTiter-Glo” value in the assay on MFM-223 [7] was found to be 2800 nM. Further, in the assay with CAL-85-1, the “EC50, CellTiter-Blue viability” value came out at 27.3 nM.

With `Cc1ccc(-n2nc(C(C)(C)C)cc2NC(=O)Nc2ccc(OCCN3CCOCC3)c3ccccc23)cc1` [Doramapimod] (10000 nM), the results for the normalised response with HCC1143, in the assay on CAL-148 [3] and with MDA-MB-436 were 91.3%, 75.7% and 99.7%, respectively.

For the compound `C#Cc1cccc(Nc2ncnc3cc(OCCOC)c(OCCOC)cc23)c1` [Erlotinib] (10000 nM), the normalised response with HCC1143 is 79.7%; with CAL-148 [3], 69.7%; in the assay with MDA-MB-436, 79%.

Take `C[C@]12CC[C@@H]3c4ccc(O)cc4C[C@@H](CCCCCCCCC[S+]([O-])CCCC(F)(F)C(F)(F)F)[C@H]3[C@@H]1CC[C@@H]2O` (stereo partly drawn) [Fulvestrant]: in the assay on MFM-223 [8], the “EC50, CellTiter-Blue viability” value turned out to be 74.5 nM.

The values are drawn from the supplement of paper PMC4862054.
